Test results published in patent US11135212B2, “Method for treating osteoporosis, osteopenia or low bone mineral density” (Altum Pharmaceuticals Inc., priority 2009, dated 2021).

How the values were obtained:
[1] = test system: cathepsin K gene expression; experiment: Osteoclast marker gene expression by real time RT-PCR: cathepsin K; format: cell-based, mouse (C57BL/6); details: osteoclasts treated with drug vs DMSO; FIG. 2
Protocol: (§1) Mouse bone marrow cells were flushed out from femora and tibiae of two 1-2-month old mice (C57BL/6), plated in culture medium (alpha MEM supplemented with 10% heat-inactivated fetal bovine serum, 100 international units/ml penicillin, 100 μg/ml streptomycin, and 2 mM L-glutamine) in a 100-mm dish, and incubated at 37° C. in 5% CO2 overnight. The next day, the non-adherent cells were pelleted and seeded at a density of 200,000 cells/cm^2. Then the osteoclast precursors were cultured in the presence of sRANKL (30 ng/ml) and M-CSF (30 ng/ml), and were treated with either tris(8-quinolinolato)gallium(III) or GaNO3 or DMSO (as a control). The medium was changed at day 3 to obtain mature osteoclasts at day 6. […] At the end of the treatment, the osteoclast preparations were stained for TRAP activity using a leukocyte acid phosphatase kit from Sigma and counted for TRAP-staining multinucleated cells. […] The number of cells having more than 3 nuclei was counted.
(§2) RNA was also isolated for gene expression analysis of osteoclast marker genes (TRAP, cathepsin K and NFAT2). Total RNA was extracted from osteoclasts treated with DMSO or tris(8-quinolinolato)gallium(III), and mRNAs were measured using real time RT-PCR. The relative levels of mRNAs were normalized to β-actin and then expressed as fold stimulation over DMSO-treated cells.

TRAP gene expression = experiment: Osteoclast marker gene expression by real time RT-PCR: TRAP; format: cell-based, mouse (C57BL/6); details: osteoclasts treated with drug vs DMSO; FIG. 2
Protocol: as §1, §2

NFAT2 gene expression = experiment: Osteoclast marker gene expression by real time RT-PCR: NFAT2; format: cell-based, mouse (C57BL/6); details: osteoclasts treated with drug vs DMSO; FIG. 2
Protocol: as §1, §2

ovariectomized rats [2] = experiment: Tibial bone mineral density by dual-energy X-ray absorptiometry in ovariectomized rats; format: in vivo, Sprague-Dawley female rats; details: 15 mg/kg oral, day one through day five of each week (daily), 32 days after first administration; FIG. 3
Protocol: (§3) The Sprague-Dawley female rats (100-125 gram, about 12 weeks old) were purchased from Taconic (Hudson, N.Y.). They were divided into 5 groups of 8 rats each. Four groups were ovariectomized, and one group was sham-operated. The rats were treated in the following manner: Group 1 ovariectomized rats were orally administered day one through day five of each week with 15 mg/kg tris(8-quinolinolato)gallium(III) (“daily”); Group 2 ovariectomized rats were treated with 75 mg/kg tris(8-quinolinolato)gallium(III) on day one of each week (“weekly”); Group 3 ovariectomized rats were treated with 38 mg/kg Ga(NO3)3 on day one of each week (“weekly”); Group 4 ovariectomized rats were treated with vehicle only (0.1% carboxymethylcellulose); Group 5 rats were sham-operated and were administered with vehicle only (0.1% carboxymethylcellulose). At the end of the experiment (32 days after the first administration of the compounds), the animals were anesthetized. Areal bone mineral density (BMD) and bone mineral content (BMC) were measured for the tibiae by dual-energy X-ray absorptiometry using an X-ray pixiMUS mouse densitometer.

[3] = test system: osteoclast precursors (mouse bone marrow cells); experiment: Osteoclast differentiation/formation: count of TRAP-staining multinucleated cells from osteoclast precursors cultured with sRANKL and M-CSF; format: cell-based, mouse (C57BL/6); details: 0.2 nM to 100 μM, day 6, TRAP-stained cells with more than 3 nuclei; p<0.05 compared with DMSO and GaNO3 (3.9 μM, 39 μM); FIG. 1
Protocol: Mouse bone marrow cells were flushed out from femora and tibiae of two 1-2-month old mice (C57BL/6), plated in culture medium (alpha MEM supplemented with 10% heat-inactivated fetal bovine serum, 100 international units/ml penicillin, 100 μg/ml streptomycin, and 2 mM L-glutamine) in a 100-mm dish, and incubated at 37° C. in 5% CO2 overnight. The next day, the non-adherent cells were pelleted and seeded at a density of 200,000 cells/cm^2. Then the osteoclast precursors were cultured in the presence of sRANKL (30 ng/ml) and M-CSF (30 ng/ml), and were treated with either tris(8-quinolinolato)gallium(III) or GaNO3 or DMSO (as a control). The medium was changed at day 3 to obtain mature osteoclasts at day 6. For treatment with tris(8-quinolinolato)gallium(III), a drug stock solution prepared by dissolving tris(8-quinolinolato)gallium(III) in DMSO was added to the cell cultures to arrive at final concentrations of 0.2 nM, 2 nM, 0.02 μM, 0.2 μM, 2 μM, 20 μM, 50 μM, or 100 μM. At the end of the treatment, the osteoclast preparations were stained for TRAP activity using a leukocyte acid phosphatase kit from Sigma and counted for TRAP-staining multinucleated cells. Specifically, TRAP staining was performed and five areas of each well were photographed. The number of cells having more than 3 nuclei was counted.

ovariectomized rats [4] = experiment: Serum osteocalcin by ELISA in ovariectomized rats; format: in vivo, Sprague-Dawley female rats; details: daily drug (15 mg/kg oral, day one through day five of each week), FIG. 4
Protocol: as §3
Blood was drawn from the rats and left at room temperature for at least 30 minutes before centrifuging at 200×g for 10 minutes to separate sera. Serum was used for the measurement of serum markers including osteocalcin. Osteocalcin was measured by ELISA. […]

Structure (SMILES): [Ga+3].[O-]c1cccc2cccnc12.[O-]c1cccc2cccnc12.[O-]c1cccc2cccnc12 [tris(8-quinolinolato)gallium(III)]
- cathepsin K gene expression (mRNA normalized to β-actin, fold over DMSO-treated cells) [1]: significantly inhibited
- TRAP gene expression (mRNA normalized to β-actin, fold over DMSO-treated cells) (TRAP gene expression): significantly inhibited
- NFAT2 gene expression (mRNA normalized to β-actin, fold over DMSO-treated cells) (NFAT2 gene expression): significantly inhibited
- bone mineral density (tibiae) compared to ovariectomized untreated rats (ovariectomized rats [2]): increased bone mineral density
- fusion of osteoclast precursors into multinucleated cells (osteoclast differentiation/formation) [3]: significantly inhibits
- serum osteocalcin compared to ovariectomized rats treated with vehicle only (ovariectomized rats [4]): significantly associated with reduced serum osteocalcin
